Test system: Hepatocyte spheroids
Experiment: This assay model using primary human hepatocyte (PHH) spheroids, which are cultured in Williams E medium. After spheroid formation, cells are exposed to compounds in an FBS-free culture medium. […] Imaging is performed on an Opera Phenix High-Content Screening System, allowing quantification of proliferation as a readout for evaluating the effects of chemical probes on hepatocyte regeneration.
Format: functional
Settings: read-out: Cell Viability; for viability at 0.1 µM: Concentration 0.1 uM; for viability at 1 µM: Concentration 1 uM; for viability at 10 µM: Concentration 10 uM

## Cc1cc(Nc2nccc(C)n2)cc(-c2cnc([C@@]3(O)CC[C@H](C(=O)O)C(C)(C)C3)s2)c1 [MRL-SYKi]
  viability at 0.1 µM: 98.8% (non-toxic)
  viability at 1 µM: 95.5% (non-toxic)

## CC(C)(O)c1cncc(-c2nc3ccc(F)cc3n2C2CC2)c1 [MSD-CYP11B2]
  viability at 1 µM: 113% (non-toxic)
  viability at 10 µM: 96.6% (non-toxic)

## N#CC1(c2ccccn2)CCN(Cc2cc(C(=O)O)c(=O)n3ccccc23)CC1 [MSD-M1PAM]
  viability at 1 µM: 112% (non-toxic)
  viability at 10 µM: 87.1% (non-toxic)

## CC(=O)Nc1c(C(C)=O)c(=O)n(C)c2nc(-c3ccc(Cl)cc3Cl)c(-c3ccc(Cl)cc3)cc12 [NAPHTHYRIDINONE]
  viability at 1 µM: 117% (non-toxic)
  viability at 10 µM: 121% (non-toxic)

## CO[C@@H](C)c1c(Nc2ccc([C@H](N(C)C(=O)C3CCS(=O)(=O)CC3)C(F)(F)F)cc2)cnc2cc(Cl)nn12 [NVS-MALT1]
  viability at 1 µM: 99.7% (non-toxic)
  viability at 10 µM: 33.9% (toxic)

## Nc1nc(NCc2ccccc2)nc(-c2ccccc2CO)n1 [Ogerin]
  viability at 1 µM: 94.3% (non-toxic)
  viability at 10 µM: 115% (non-toxic)

## COc1ccc2cc(OCC3(C(=O)O)CN(C(=O)c4ccc(F)cc4)C3)ccc2c1 [PF-04418948]
  viability at 0.1 µM: 157% (non-toxic)
  viability at 1 µM: 153% (toxic)

## C[C@H](c1ccc(F)cc1)N(Cc1cccc(C(=O)O)c1)C(=O)c1cnc2ccccc2c1 [PF-05105679]
  viability at 1 µM: 126% (non-toxic)
  viability at 10 µM: 120% (non-toxic)

## CS(=O)(=O)N1CCCC(NC(=O)[C@H](CCC2CCCCC2)NC(=O)c2ccc(CNC(=O)c3cnc4ccccn34)cc2)C1 (some centres not stated) [SR-302]
  viability at 0.1 µM: 134% (non-toxic)
  viability at 1 µM: 128% (non-toxic)

## Nc1c(C(=O)NCc2ccc(C(=O)NCCCC3CCCCC3)cc2)cnn1-c1ccccc1 [SR-318]
  viability at 0.1 µM: 81.4% (non-toxic)
  viability at 1 µM: 89.8% (non-toxic)

## O=C1c2ccc(Nc3ccc(F)cc3F)cc2CCc2ccc(OC[C@H](O)CO)cc21 [Skepinone-L]
  viability at 1 µM: 94.6% (non-toxic)
  viability at 10 µM: 16.2% (toxic)

## CN1CCN(C(=O)C(C)(C)c2ccc(C(=O)Nc3cn4cc(-c5ccncc5)ccc4n3)cc2)CC1 [T3-CLK]
  viability at 1 µM: 109% (non-toxic)
  viability at 10 µM: 1.01% (toxic)

## COc1cccc(CNC(=O)c2nc3scc(COCc4ccc(C(=O)O)cc4)c3c(=O)[nH]2)c1 [T-26c]
  viability at 0.1 µM: 125% (non-toxic)
  viability at 1 µM: 99.4% (non-toxic)

## COCCOc1nc(-c2ccc(Cl)nc2)nc2c1CN(C(=O)c1ncn3ccccc13)CC2 [THPP-1]
  viability at 0.1 µM: 118% (non-toxic)
  viability at 1 µM: 116% (non-toxic)

## Cc1cnc(-c2cc(Cl)ccc2F)cc1-n1c(=O)n(CC(N)=O)c2cnccc21 [TP-008]
  viability at 1 µM: 90% (non-toxic)
  viability at 10 µM: 99.1% (non-toxic)

## Cn1nc(C(F)(F)F)cc1-c1cnc(N2CCc3cc(S(=O)(=O)Nc4c(F)cc(Cl)cc4F)cc(N4CCCC4=O)c32)nc1 [TP-020]
  viability at 1 µM: 121% (non-toxic)
  viability at 10 µM: 120% (non-toxic)

## Cc1cc(-n2nc(Cc3cc(F)cc(C(F)(F)F)c3)nc2C)ccc1C(N)=O [TP-024]
  viability at 1 µM: 111% (non-toxic)
  viability at 10 µM: 92% (non-toxic)

## CN1C(=O)[C@@H](N2CCc3c(nn(Cc4ccccc4)c3Br)C2=O)COc2ccccc21 [TP-030-2]
  viability at 0.1 µM: 69.5% (toxic)
  viability at 1 µM: 56.7% (toxic)

## CC1CCN(c2ccnc(NCc3cn(C)cn3)n2)CC1 [TP-040]
  viability at 1 µM: 127% (non-toxic)
  viability at 10 µM: 133% (non-toxic)

## Cc1ccc2nc(CNCCCOc3ccccc3)cc(O)c2c1 [UCSF924]
  viability at 1 µM: 164% (non-toxic)
  viability at 10 µM: 147% (non-toxic)

## O=C(NNS(=O)(=O)c1ccccc1F)c1cc(F)cc(-c2ccccn2)c1 [WM-1119]
  viability at 1 µM: 107% (non-toxic)
  viability at 10 µM: 75.2% (non-toxic)
